Source: publication PMC549391 (Nucleic Acids Research, 2005)

Target: T1, ribonuclease III (RNase III) (Escherichia coli, UniProt P0A7Y0)
T1 sequence (P0A7Y0 1-226): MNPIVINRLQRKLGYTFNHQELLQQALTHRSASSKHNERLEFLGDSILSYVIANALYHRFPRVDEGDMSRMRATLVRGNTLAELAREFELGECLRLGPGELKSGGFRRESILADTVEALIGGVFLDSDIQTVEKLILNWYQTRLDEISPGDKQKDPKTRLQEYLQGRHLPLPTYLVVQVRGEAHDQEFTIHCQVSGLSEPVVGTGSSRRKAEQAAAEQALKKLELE
Experiment: cleavage of […]-labeled R1.[…] RNA by purified RNase III, gel assay, […] Mg2+
Assay type: biochemical

IC50: 14 ± 2 µM
Structure (SMILES): O=C1Cc2ccccc2C(=O)N1O [compound 1, 2-hydroxy-4H-isoquinoline-1,3-dione]
